Article PMC8618356, “Optimization, Characterization and Pharmacokinetic Study of Meso-Tetraphenylporphyrin Metal Complex-Loaded PLGA Nanoparticles” (International Journal of Molecular Sciences, 2021)
Where two headings read alike, the source gives them in different places.

Assays:
[1] = system: HeLa, MCF-7, and SK-OV-3 cells; assay: Cytotoxicity, MTT assay; format: cell-based, human; conditions: all examined cell lines, 72 h
Protocol: The cancer cell lines HeLa (human cervical carcinoma), MCF-7 (human breast adenocarcinoma), and SK-OV-3 (human ovarian carcinoma) were purchased from the American Type Culture Collection (ATCC, Manassas, VA, USA). Cells were maintained in DMEM medium supplemented with 10% fetal bovine serum and gentamycin (50 μg/mL). Cells were maintained in plastic 25 cm^2 cell culture flasks at 37 °C in a humidified atmosphere containing 5% CO2. HeLa, MCF-7, and SK-OV-3 cells were plated before reaching 80% confluence using trypsin/EDTA solution.
MCF-7, SK-OV-3, and HeLa cells were plated in 96-well plates (5000 cells per well) one day before the experiment and incubated under standard conditions. MeP and MeP-NPs were added in triplets in the concentration range 0.125–100 μM (according to the MeP concentration) and incubated for 2 h. To determine cytotoxicity, cells were treated with AA alone or in combination with MeP in a molar ratio of 1:20 to MeP and then incubated for 72 h. Cell survival was determined using the standard MTT assay. Cell viability was determined as the percent of untreated control. Mean survival values were calculated in Excel (Microsoft Corporation, Redmond, Washington, DC, USA)) and data visualization was performed in OriginPro (version 2020b, OriginLab Corp., Northampton, MA, USA).

[2] = MeP loading content and encapsulation efficiency of PLGA NPs (spectrophotometry); format: physicochemical; conditions: optimized MeP-loaded PLGA NPs; for MeP loading content (LC): observed data
Protocol: EE and LC calculation is a critical stage in NP analysis, evaluating the MeP amount in NPs’ core. The EE of MeP was determined by dissolving 4 mg of NPs in 4 mL of distilled water followed by centrifugation at 5000× g for 3 min and subsequent lyophilization. The optical density of the sediment and supernatant was assessed at 465 nm for MnClTPP, 433 nm for NiTPP, and 428 nm for CoTPP. The entrapment efficiency of MeP (EE) was calculated according to Equation (9):(9) EE (%)=The mass of MeP in the nanoparticles, mg/The mass of the nanoparticles weight, mg ∗100%
MeP LC corresponded to the optical density of 4 mg of lyophilized NPs in 4 mL of DMSO. Subsequent absorption analysis was performed as indicated earlier and LC calculated according to the following Equation (10): (10) LC (%) = Absorbance∗VDMSO/ε∗msample∗100% where VDMSO is the total volume of suspension containing NPs (L), ε is the extinction coefficient of MeP in DMSO (ε = 116,280 M^−1 cm^−1 for MnClTPP, ε = 36,797 M^−1 cm^−1 for NiTPP, ε = 87,448 M^−1 cm^−1 for CoTPP), and msample is the NPs mass (g).

[3] = In vitro release study of MeP-loaded NPs in PBS pH 7.4 with 0.1% Tween 80; format: physicochemical; conditions: for release rate constant kк (Korsmeyer–Peppas model) / release exponent n (Korsmeyer–Peppas model): MeP release from MeP-loaded PLGA NPs; for release rate constant kк (Korsmeyer–Peppas model): PBS pH 7.4, 0.1% Tween 80, 37 °C; for release exponent n (Korsmeyer–Peppas model): less than 0.43 = Fickian diffusion; for duration of the fast (rapid) release phase: biphasic release from MeP-loaded NPs
Text: We analyzed the release according to the method of Abouelmag et al. using a phosphate-buffered saline (PBS) pH 7.4 containing 0.1% Tween 80 (Figure 8) as a release medium.
We determined the MeP release mechanisms by fitting the data obtained by applying several release kinetic models (Table 7). […] The release exponent values were n = 0.01 for NiTPP, n = 0.06 for CoTPP, and n = 0.11 for MnClTPP, and less than 0.43, indicating Fickian diffusion of MeP [92].
The time-dependent release of MeP was analyzed by dissolving 3 mg of NPs in 1 mL of PBS (0.01 M, pH 7.4) and incubation in a dark glass bottle containing 40 mL of PBS (0.01 M, pH 7.4) and 0.1% (w/v) Tween 80 solution. The probes were kept on a shaker incubator at 90 rpm and 37 °C. Aliquots of 1 mL of media were taken at 0, 0.25, 0.5, 0.75, 1, 1.5, 2, 3, 4, 24, 48, 72, 120, 144, and 192 h and replenished with 1 mL of fresh PBS. The collected aliquots were centrifuged for 3 min at 5000× g at 37 °C. The supernatants were removed and lyophilized as well as the sediments. The amount of MeP released at each time point was calculated as described above according to optical absorption.

[4] = rat, in vivo, iv
Protocol: The MeP and MeP-NPs were administered via the lateral tail vein at tahe dose of 12.5 (NiTPP, CoTPP, and corresponding NPs at the equivalent dose) and 6.3 mg/kg (MnClTPP and MnClTPP-NPs at the equivalent dose).
Female Wistar rats (body weight 220–240 g) were supplied by Stolbovaya animal facility (Branch of the Scientific Center of Biomedical Technologies of the Federal Medical Biological Agency (Moscow, Russia)). The animals were kept under controlled conditions (temperature of 22 ± 2 °C and relative humidity of 50 ± 10%) with free access to water and standard pellet feed.
The MeP and MeP-NPs pharmacokinetics study was accomplished using randomly divided rat groups (n = 3). Blood samples (50 μL) were collected before injection and after at different time points: 0.25, 0.50, 1.0, 3.0, 6.0, 24.0, and 48.0 h. The blood samples were diluted to 1.0 mL and analyzed with ICP-MS (Agilent 7500C, Agilent Technologies, Tokyo, Japan) [112]. The sample introduction system consisted of a robust Babington nebulizer with a Scott spray chamber (Agilent Technologies, Tokyo, Japan) cooled by a Peltier element (2 °C). The data were acquired and processed with the ICP-MS ChemStation (Agilent Technologies, version G1834B; Santa Clara, CA, USA) software package. The internal standard method was applied in order to take into account the effect of the matrix; Rh was used as internal standard. For dilution of the whole blood samples and standard solution, the mixture of 0.1% Triton X-100–1% HNO3 was used. The same solution was used as the mobile phase of the mass spectrometer.
The pharmacokinetic parameters of MeP were estimated using standard non-compartmental methods [113]. The volume of distribution (Vd), mean residence time (MRT), elimination half-life (t1/2), and area under the plasma concentration–time curve from 0 h to infinity (AUCinf) were determined after intravenous administration of MeP-loaded NPs to animals. All calculations were performed using the PKSolver add-in program for Microsoft Excel [114].

BALB/c female mice = assay: Acute toxicity analysis; format: in vivo; conditions: i.v. tail vein, 24 h
Protocol: All experimental procedures with animals (mice and rats) were performed according to the University Ethics Committee for the use of experimental animals and animal studies were carried out as per the guidelines of the European Medicines Agency, Amsterdam, the Netherlands.
MeP and MeP-NP acute toxicity analysis was accomplished using randomly divided mice groups (n = 3). The samples were diluted in PBS and injected (200 μL) via the lateral tail vein. Due to poor water solubility, MePs were preliminarily dissolved in DMSO and Tween 80: the final solution represented 5% v/v DMSO and 2% Tween 80 v/v in PBS. Survival was registered for 24 h after injection.

[5] = In vitro release study of MeP-loaded NPs in PBS pH 7.4 with 0.1% Tween 80; format: physicochemical; conditions: after 180 h

Row | Structure (SMILES) | cytotoxicity alone, without combination (in words) [1] | encapsulation efficiency (EE) [2] [%] | MeP loading content (LC) [2] [%] | release rate constant kк (Korsmeyer–Peppas model) [3] [h⁻¹] | release exponent n (Korsmeyer–Peppas model) [3] | duration of the fast (rapid) release phase [3] [min] | AUCinf ([4]; 12.5 mg/kg) | MRT ([4]; 12.5 mg/kg) [h] | Vd ([4]; 12.5 mg/kg) [L/kg] | t1/2 ([4]; 12.5 mg/kg) [h] | Mice Survived (BALB/c female mice; 6.25 mg/kg) | Mice Survived (BALB/c female mice; 12.5 mg/kg) | Mice Survived (BALB/c female mice; 25 mg/kg) | Mice Survived (BALB/c female mice; 50 mg/kg) | MeP released from NPs [5] [%] | AUCinf ([4]; 6.3 mg/kg) | MRT ([4]; 6.3 mg/kg) [h] | Vd ([4]; 6.3 mg/kg) [L/kg] | t1/2 ([4]; 6.3 mg/kg) [h]
1 | O=C1O[C@H]([C@@H](O)CO)C(O)=C1O [AA, ascorbic acid] | lacked cell growth inhibition | – | – | – | – | – | – | – | – | – | – | – | – | – | – | – | – | – | –
2 | C1=Cc2nc1c(-c1ccccc1)c1ccc([n-]1)c(-c1ccccc1)c1nc(c(-c3ccccc3)c3ccc([n-]3)c2-c2ccccc2)C=C1.[Co+2] [CoTPP] | – | 79.7 | 8.7 | 74.3 | 0.06 | 30 | 60,370 ± 18,111 (µg/mL) (h) | 27 ± 7 | 0.003 ± 0.001 | 17 ± 4 | 3/3 | 3/3 | 2/3 | 0/3 | – | – | – | – | –
3 | C1=Cc2nc1c(-c1ccccc1)c1ccc([n-]1)c(-c1ccccc1)c1nc(c(-c3ccccc3)c3ccc([n-]3)c2-c2ccccc2)C=C1.[Cl-].[Mn+3] [MnClTPP, MnCl3-tetraphenylporphyrin chloride] | – | 79.9 | 28.9 | 49.4 | 0.11 | 15 | – | – | – | – | 3/3 | 3/3 | 3/3 | 2/3 | 80 | 15,362 ± 5377 (µg/mL) (h) | 62 ± 21 | 0.013 ± 0.004 | 44 ± 14
4 | C1=Cc2nc1c(-c1ccccc1)c1ccc([n-]1)c(-c1ccccc1)c1nc(c(-c3ccccc3)c3ccc([n-]3)c2-c2ccccc2)C=C1.[Ni+2] [NiTPP] | – | – | 11.1 | 91.3 | 0.01 | 30 | 612 ± 184 (µg/mL) (h) | 25 ± 6 | 2.683 ± 0.805 | 19 ± 6 | 3/3 | 3/3 | 1/3 | 0/3 | – | – | – | – | –
